The source of these data is patent US10562909B2, “Fused quadracyclic compounds, compositions and uses thereof” (Tabomedex Biosciences, LLC, priority 2016, dated 2020).

Structures are written as SMILES.

Usually IC50 stands for the concentration that inhibits the measured activity by half. A low value points to greater potency in that assay.

For the assay, the target named is MAPKAPK2 (Homo sapiens, UniProt P49137). The assay can be described thus: MK2 Enzymatic Assay. The following applies: 0.5 nM MAPKAPK2, 3 μM ATP, 2 μM Ser/Thr4 peptide, 23° C., values given as concentration bins. Type of assay: biochemical. The method in brief: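 Percent phosphorylation was derived from coumarin and fluorescein emissions relative to 0% and 100% phospho-peptide controls, read after a 120 min development step. Reactions used 2× stocks of 1 nM kinase, 4 μM peptide and 6 μM ATP; enzyme and peptide sat 20 min before a 120 min ATP reaction.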
MAPKAPK2, sequence (P49137 whole entry, species assumed): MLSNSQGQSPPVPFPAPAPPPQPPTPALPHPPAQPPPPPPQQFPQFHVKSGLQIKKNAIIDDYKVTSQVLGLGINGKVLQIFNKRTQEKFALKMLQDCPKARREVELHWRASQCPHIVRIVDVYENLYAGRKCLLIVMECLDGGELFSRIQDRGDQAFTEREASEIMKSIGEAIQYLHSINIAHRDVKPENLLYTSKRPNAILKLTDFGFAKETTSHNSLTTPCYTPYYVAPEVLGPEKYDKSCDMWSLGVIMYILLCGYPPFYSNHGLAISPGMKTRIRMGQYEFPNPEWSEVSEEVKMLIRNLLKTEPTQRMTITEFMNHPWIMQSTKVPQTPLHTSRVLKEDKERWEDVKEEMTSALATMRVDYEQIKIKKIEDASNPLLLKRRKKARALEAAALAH

With `OC1CCN(C[C@H]2CCN(c3ccc4c(c3)Cn3cc(-c5ccc(F)cc5)cc3-c3nccn3-4)C2)CC1` [Compound 362, (R)-1-((1-(12-(4-fluorophenyl)-9H-benzo[e]imidazo[2,1-c]pyrrolo[1,2-a][1,4]diazepin-7-yl)pyrrolidin-3-yl)methyl)piperidin-4-ol], the half-inhibitory concentration (IC50) was less than 50 nM.
In the case of `CNC[C@H]1CN(c2ccc3c(c2)Cn2cc(-c4ccc(F)cc4)cc2-c2nccn2-3)C[C@@H]1O` [Compound 363, (3R,4S)-1-(12-(4-fluorophenyl)-9H-benzo[e]imidazo[2,1-c]pyrrolo[1,2-a][1,4]diazepin-7-yl)-4-((methylamino)methyl)pyrrolidin-3-ol] it was less than 50 nM; in that of `CNC[C@@H]1CN(c2ccc3c(c2)Cn2cc(-c4ccc(F)cc4)cc2-c2nccn2-3)C[C@H]1O` [Compound 364, (3S,4R)-1-(12-(4-fluorophenyl)-9H-benzo[e]imidazo[2,1-c]pyrrolo[1,2-a][1,4]diazepin-7-yl)-4-((methylamino)methyl)pyrrolidin-3-ol], less than 50 nM; in that of `NC[C@H]1CN(c2ccc3c(c2)Cn2cc(-c4ccc(F)cc4)cc2-c2nccn2-3)C[C@@H]1O` [Compound 365, (3R,4S)-4-(aminomethyl)-1-(12-(4-fluorophenyl)-9H-benzo[e]imidazo[2,1-c]pyrrolo[1,2-a] [1,4]diazepin-7-yl)pyrrolidin-3-ol], 50 to 100 nM.
To `NC[C@@H]1CN(c2ccc3c(c2)Cn2cc(-c4ccc(F)cc4)cc2-c2nccn2-3)C[C@H]1O` [Compound 366, (3S,4R)-4-(aminomethyl)-1-(12-(4-fluorophenyl)-9H-benzo[e]imidazo[2,1-c]pyrrolo[1,2-a] [1,4]diazepin-7-yl)pyrrolidin-3-ol] belongs less than 50 nM.
In the case of `CCN1CC2(CCN(c3ccc4c(c3)Cn3cc(-c5ccc(F)cc5)cc3-c3nccn3-4)C2)C1` [Compound 367, 7-(2-ethyl-2,6-diazaspiro[3.4]octan-6-yl)-12-(4-fluorophenyl)-9H-benzo[e]imidazo[2,1-c] pyrrolo[1,2-a][1,4]diazepine] it was less than 50 nM; in that of `CC(C)N1CC2(CCN(c3ccc4c(c3)Cn3cc(-c5ccc(F)cc5)cc3-c3nccn3-4)C2)C1` [Compound 368, 12-(4-fluorophenyl)-7-(2-isopropyl-2,6-diazaspiro[3.4]octan-6-yl)-9H-benzo[e]imidazo[2,1-c]pyrrolo[1,2-a][1,4]diazepine], less than 50 nM.
For the molecule `OCCN1CC2(CCN(c3ccc4c(c3)Cn3cc(-c5ccc(F)cc5)cc3-c3nccn3-4)C2)C1` [Compound 369, 2-(6-(12-(4-fluorophenyl)-9H-benzo[e]imidazo[2,1-c]pyrrolo[1,2-a][1,4]diazepin-7-yl)-2,6-diazaspiro[3.4]octan-2-yl)ethanol], the IC50 was less than 50 nM.
To `C[C@H](CO)N1CC2(CCN(c3ccc4c(c3)Cn3cc(-c5ccc(F)cc5)cc3-c3nccn3-4)C2)C1` [Compound 370, (R)-2-(6-(12-(4-fluorophenyl)-9H-benzo[e]imidazo[2,1-c]pyrrolo[1,2-a][1,4]diazepin-7-yl)-2,6-diazaspiro[3.4]octan-2-yl)propan-1-ol] belongs less than 50 nM; to `C[C@@H](CO)N1CC2(CCN(c3ccc4c(c3)Cn3cc(-c5ccc(F)cc5)cc3-c3nccn3-4)C2)C1` [Compound 371, (S)-2-(6-(12-(4-fluorophenyl)-9H-benzo[e]imidazo[2,1-c]pyrrolo[1,2-a][1,4]diazepin-7-yl)-2,6-diazaspiro[3.4]octan-2-yl)propan-1-ol], less than 50 nM.
With `Fc1ccc(-c2cc3n(c2)Cc2cc(N4CCC5(C4)CN(C4CCCC4)C5)ccc2-n2ccnc2-3)cc1` [Compound 375, 7-(2-cyclopentyl-2,6-diazaspiro[3.4]octan-6-yl)-12-(4-fluorophenyl)-9H-benzo[e]imidazo[2,1-c]pyrrolo[1,2-a][1,4]diazepine], the IC50 is less than 50 nM.
To `Fc1ccc(-c2cc3n(c2)Cc2cc(N4CCC5(CNC5)C4)ccc2-n2ccnc2-3)cc1` [Compound 376, 12-(4-fluorophenyl)-7-(2,6-diazaspiro[3.4]octan-6-yl)-9H-benzo[e]imidazo[2,1-c]pyrrolo[1,2-a][1,4]diazepine] belongs less than 50 nM; to `Fc1ccc(-c2cc3n(c2)Cc2cc(N4CC5(CCCNC5)C4)ccc2-n2ccnc2-3)cc1` [Compound 377, 12-(4-fluorophenyl)-7-(2,6-diazaspiro[3.5]nonan-2-yl)-9H-benzo[e]imidazo[2,1-c]pyrrolo[1,2-a][1,4]diazepine], less than 50 nM.
To `Fc1ccc(-c2cc3n(c2)Cc2cc(N4CC5(CCNC5)C4)ccc2-n2ccnc2-3)cc1` [Compound 378, 12-(4-fluorophenyl)-7-(2,6-diazaspiro[3.4]octan-2-yl)-9H-benzo[e]imidazo[2,1-c]pyrrolo[1,2-a][1,4]diazepine] belongs less than 50 nM; to `CN(C)[C@@H]1CCN(c2ccc3c(c2)Cn2cc(-c4ccc(F)cc4)cc2-c2nccn2-3)C1` [Compound 379, (R)-1-(12-(4-fluorophenyl)-9H-benzo[e]imidazo[2,1-c]pyrrolo[1,2-a][1,4]diazepin-7-yl)-N,N-dimethylpyrrolidin-3-amine], less than 50 nM; to `CN(C)[C@H]1CCN(c2ccc3c(c2)Cn2cc(-c4ccc(F)cc4)cc2-c2nccn2-3)C1` [Compound 380, (S)-1-(12-(4-fluorophenyl)-9H-benzo[e]imidazo[2,1-c]pyrrolo[1,2-a][1,4]diazepin-7-yl)-N,N-dimethylpyrrolidin-3-amine], less than 50 nM.
In the case of `CN(C)C1CCN(c2ccc3c(c2)Cn2cc(-c4ccc(F)cc4)cc2-c2nccn2-3)CC1` [Compound 381, 1-(12-(4-fluorophenyl)-9H-benzo[e]imidazo[2,1-c]pyrrolo[1,2-a][1,4]diazepin-7-yl)-N,N-dimethylpiperidin-4-amine] it was less than 50 nM.
Molecule `CNCC1CN(c2ccc3c(c2)Cn2cc(-c4ccc(F)cc4)cc2-c2nnnn2-3)C1` [Compound 386, 1-(1-(12-(4-fluorophenyl)-9H-benzo[e]pyrrolo[1,2-a]tetrazolo[5,1-c][1,4]diazepin-7-yl)azetidin-3-yl)-N-methylmethanamine] returned an IC50 of less than 50 nM.
As to `CNCC1CCN(c2ccc3c(c2)Cn2cc(-c4ccc(F)cc4)cc2-c2nnnn2-3)C1` (stereo not drawn) [Compound 388, 1-(1-(12-(4-fluorophenyl)-9H-benzo[e]pyrrolo[1,2-a]tetrazolo[5,1-c][1,4]diazepin-7-yl)pyrrolidin-3-yl)-N-methylmethanamine], the IC50 is less than 50 nM.
In the case of `N[C@@H]1CCCN(c2ccc3c(c2)Cn2cc(-c4ccc(F)cc4)cc2-c2nnnn2-3)C1` [Compound 389, (R)-1-(12-(4-fluorophenyl)-9H-benzo[e]pyrrolo[1,2-a]tetrazolo[5,1-c][1,4]diazepin-7-yl) piperidin-3-amine] it was less than 50 nM.
In turn, `N[C@H]1CCCN(c2ccc3c(c2)Cn2cc(-c4ccc(F)cc4)cc2-c2nnnn2-3)C1` [Compound 390, (S)-1-(12-(4-fluorophenyl)-9H-benzo[e]pyrrolo[1,2-a]tetrazolo[5,1-c][1,4]diazepin-7-yl) piperidin-3-amine] returned an IC50 of 50 to 100 nM.
To `CN1CC2(CCN(c3ccc4c(c3)Cn3cc(-c5ccc(F)cc5)cc3-c3nnnn3-4)C2)C1` [Compound 392, 12-(4-fluorophenyl)-7-(2-methyl-2,6-diazaspiro[3.4]octan-6-yl)-9H-benzo[e]pyrrolo[1,2-a] tetrazolo[5,1-c][1,4]diazepine] belongs less than 50 nM.
`CN(C)C[C@@H]1CCN(c2ccc3c(c2)Cn2cc(-c4ccc(F)cc4)cc2-c2nnnn2-3)C1` [Compound 393, (S)-1-(1-(12-(4-fluorophenyl)-9H-benzo[e]pyrrolo[1,2-a]tetrazolo[5,1-c][1,4]diazepin-7-yl)pyrrolidin-3-yl)-N,N-dimethylmethanamine] came in with an IC50 of less than 50 nM.
In the case of `CN(C)C[C@H]1CCN(c2ccc3c(c2)Cn2cc(-c4ccc(F)cc4)cc2-c2nnnn2-3)C1` [Compound 394, (R)-1-(1-(12-(4-fluorophenyl)-9H-benzo[e]pyrrolo[1,2-a]tetrazolo[5,1-c][1,4]diazepin-7-yl)pyrrolidin-3-yl)-N,N-dimethylmethanamine] it was 50 to 100 nM; in that of `C[C@@H]1CN(c2ccc3c(c2)Cn2cc(-c4ccc(F)cc4)cc2-c2nnnn2-3)C[C@H](C)N1` [Compound 395, 7-(cis-3,5-dimethylpiperazin-1-yl)-12-(4-fluorophenyl)-9H-benzo[e]pyrrolo[1,2-a]tetrazolo[5,1-c][1,4]diazepine], less than 50 nM; in that of `Fc1ccc(-c2cc3n(c2)Cc2cc(N4CCC5(CNC5)C4)ccc2-n2nnnc2-3)cc1` [Compound 398, 12-(4-fluorophenyl)-7-(2,6-diazaspiro[3.4]octan-6-yl)-9H-benzo[e]pyrrolo[1,2-a]tetrazolo[5,1-c][1,4]diazepine], less than 50 nM.
With `Fc1ccc(-c2cc3n(c2)Cc2cc(N4CCC5(CC4)CNC5)ccc2-n2nnnc2-3)cc1` [Compound 402, 12-(4-fluorophenyl)-7-(2,7-diazaspiro[3.5]nonan-7-yl)-9H-benzo[e]pyrrolo[1,2-a]tetrazolo[5,1-c][1,4]diazepine], the IC50 was less than 50 nM.
To `Fc1ccc(-c2cc3n(c2)Cc2cc(N4CC5(CCNC5)C4)ccc2-n2nnnc2-3)cc1` [Compound 403, 12-(4-fluorophenyl)-7-(2,6-diazaspiro[3.4]octan-2-yl)-9H-benzo[e]pyrrolo[1,2-a]tetrazolo[5,1-c][1,4]diazepine] belongs 50 to 100 nM.
In the case of `CN(C)[C@@H]1CCN(c2ccc3c(c2)Cn2cc(-c4ccc(F)cc4)cc2-c2nnnn2-3)C1` [Compound 406, (R)-1-(12-(4-fluorophenyl)-9H-benzo[e]pyrrolo[1,2-a]tetrazolo[5,1-c][1,4]diazepin-7-yl)-N,N-dimethylpyrrolidin-3-amine] it was less than 50 nM; in that of `CN(C)[C@H]1CCN(c2ccc3c(c2)Cn2cc(-c4ccc(F)cc4)cc2-c2nnnn2-3)C1` [Compound 407, (S)-1-(12-(4-fluorophenyl)-9H-benzo[e]pyrrolo[1,2-a]tetrazolo[5,1-c][1,4]diazepin-7-yl)-N,N-dimethylpyrrolidin-3-amine], 50 to 100 nM.
